Source: the NIST ThermoML archive (doi:10.1016/j.fluid.2008.02.005)

Legend:
[1] = 101.33 kPa, Liquid
[2] = xn = mol fraction of the nth substance listed; conditions: 101 kPa, Liquid

CCCCCCOCCOCCO [2-(2-hexyloxyethoxy)ethanol]
[1]
Conditions	mass density [kg/m3]
288.15 K	924.348
298.15 K	915.522
308.15 K	906.642

CCCCCCOCCOCCO [2-(2-hexyloxyethoxy)ethanol] + CCCCCCCO
mass density [kg/m3], [2]
Conditions	288.15 K	298.15 K	308.15 K
x1 = 0.1109	840.489	833.182	825.922
x1 = 0.1592	846.447	839.091	831.645
x1 = 0.1986	851.154	843.756	836.178
x1 = 0.258	857.994	850.491	842.797
x1 = 0.3094	863.644	856.08	848.254
x1 = 0.3515	868.149	860.468	852.588
x1 = 0.3927	872.418	864.636	856.716
x1 = 0.4463	877.834	869.912	861.89
x1 = 0.5084	883.872	875.796	867.692
x1 = 0.5574	888.492	880.349	872.159
x1 = 0.6167	893.921	885.645	877.389
x1 = 0.6511	896.97	888.674	880.331
x1 = 0.7101	902.042	893.703	885.279
x1 = 0.7491	905.269	896.923	888.446
x1 = 0.8085	910.029	901.658	893.122
x1 = 0.8543	913.588	905.198	896.613
x1 = 0.9087	917.663	909.197	900.531
x1 = 0.9487	920.583	912.028	903.307

CCCCCCOCCOCCO [2-(2-hexyloxyethoxy)ethanol] + CCCCCO
mass density [kg/m3], [2]
Conditions	288.15 K	298.15 K	308.15 K
x1 = 0.1112	837.545	830.059	822.319
x1 = 0.1587	846.35	838.122	830.389
x1 = 0.2096	855.128	846.145	838.566
x1 = 0.2584	862.625	853.171	845.659
x1 = 0.3012	868.44	858.72	851.35
x1 = 0.3558	874.88	865.166	857.77
x1 = 0.4022	879.672	870.098	862.642
x1 = 0.4506	884.17	874.849	867.245
x1 = 0.5069	889.049	880.057	872.125
x1 = 0.541	891.897	883.079	874.951
x1 = 0.5971	896.445	887.853	879.382
x1 = 0.6456	900.337	891.848	883.098
x1 = 0.6998	904.59	896.131	887.198
x1 = 0.747	908.177	899.702	890.721
x1 = 0.8052	912.354	903.888	894.96
x1 = 0.8501	915.348	906.892	898.056
x1 = 0.9008	918.511	910.007	901.375
x1 = 0.9459	921.161	912.609	903.991

CCCCCCOCCOCCO [2-(2-hexyloxyethoxy)ethanol] + CCCO
mass density [kg/m3], [2]
Conditions	288.15 K	298.15 K	308.15 K
x1 = 0.1085	837.518	829.325	820.919
x1 = 0.1608	848.615	840.381	831.968
x1 = 0.2102	857.751	849.425	841.022
x1 = 0.2477	863.891	855.521	847.161
x1 = 0.2972	871.227	862.829	854.397
x1 = 0.3493	878.129	869.65	861.101
x1 = 0.4048	884.6	876.088	867.464
x1 = 0.46	890.404	881.84	873.153
x1 = 0.5003	894.261	885.64	876.925
x1 = 0.5584	899.282	890.668	881.873
x1 = 0.6066	903.088	894.428	885.633
x1 = 0.6604	906.948	898.225	889.461
x1 = 0.6964	909.32	900.561	891.847
x1 = 0.7532	912.745	903.981	895.267
x1 = 0.8054	915.595	906.826	898.1
x1 = 0.8563	918.152	909.394	900.587
x1 = 0.9044	920.357	911.598	902.735
x1 = 0.9593	922.69	913.937	905.015

CCCCCCOCCOCCO [2-(2-hexyloxyethoxy)ethanol] + CO
mass density [kg/m3], [2]
Conditions	288.15 K	298.15 K	308.15 K
x1 = 0.1165	853.467	844.018	834.816
x1 = 0.162	865.705	856.244	846.965
x1 = 0.2113	875.875	866.451	857.177
x1 = 0.266	884.716	875.458	866.337
x1 = 0.3119	890.88	881.656	872.742
x1 = 0.3606	896.388	887.19	878.481
x1 = 0.4012	900.31	891.16	882.585
x1 = 0.4577	904.872	895.844	887.363
x1 = 0.5071	908.159	899.262	890.741
x1 = 0.5578	911.041	902.168	893.568
x1 = 0.6037	913.218	904.353	895.701
x1 = 0.6644	915.682	906.87	898.078
x1 = 0.7102	917.283	908.456	899.602
x1 = 0.7533	918.633	909.864	901.011
x1 = 0.7928	919.837	911.054	902.199
x1 = 0.8517	921.511	912.714	903.777
x1 = 0.9	922.714	913.911	905.244
x1 = 0.9674	924.001	915.182	906.508

CCCCCCCO [heptan-1-ol]
[1]
Conditions	mass density [kg/m3]
288.15 K	825.943
298.15 K	818.789
308.15 K	812.385

CO [methanol]
[1]
Conditions	mass density [kg/m3]
288.15 K	795.969
298.15 K	786.548
308.15 K	777.067

CCCCCO [pentan-1-ol]
[1]
Conditions	mass density [kg/m3]
288.15 K	818.336
298.15 K	811.001
308.15 K	803.302

CCCO [propan-1-ol]
[1]
Conditions	mass density [kg/m3]
288.15 K	807.898
298.15 K	799.666
308.15 K	791.765
